From patent publication US20070004660A1, “Synergistic Modulation of Flt3 Kinase Using Alkylquinolines and Alkylquinazolines” (priority 2005, published 2007)

Tests used:
[1] = target: T1, isolated kinase domain of the human FLT3 receptor (a.a. 571-993) (Homo sapiens, UniProt P36888); test: FLT3 fluorescence polarization kinase assay; format: biochemical; settings: 150 uM ATP; uncertainty ±10%
T1 construct: human FLT3 receptor (a.a. 571-993)
T1 sequence (P36888 571-993): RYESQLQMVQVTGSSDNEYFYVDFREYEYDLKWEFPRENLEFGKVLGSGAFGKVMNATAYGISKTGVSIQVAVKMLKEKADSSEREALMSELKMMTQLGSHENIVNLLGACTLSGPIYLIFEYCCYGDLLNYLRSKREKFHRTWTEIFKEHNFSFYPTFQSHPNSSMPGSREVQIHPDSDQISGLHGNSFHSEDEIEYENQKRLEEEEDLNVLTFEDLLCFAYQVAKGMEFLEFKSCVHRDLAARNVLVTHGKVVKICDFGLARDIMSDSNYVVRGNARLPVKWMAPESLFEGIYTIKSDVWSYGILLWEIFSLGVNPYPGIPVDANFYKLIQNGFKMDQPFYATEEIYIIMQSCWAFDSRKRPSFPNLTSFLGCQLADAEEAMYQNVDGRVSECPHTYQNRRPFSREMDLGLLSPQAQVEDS

MV4-11 cells = test: Inhibition of MV4-11 cell proliferation (CellTiterGlo, 72 h); format: cell-based; settings: Homo sapiens; 72 h growth inhibition; uncertainty ±20%

Row | Compound | IC50 [1] | IC50 (MV4-11 cells)
1 | CC(C)Oc1ccc(NC(=O)N2CCC(c3ncnc4ccc(N5CCN(C)CC5)cc34)CC2)cc1 [Example 131, 4-[6-(4-Methyl-piperazin-1-yl)-quinazolin-4-yl]-piperidine-1-carboxylic acid (4-isopropoxy-phenyl)-amide] | 436 nM | 2800 nM
2 | CN1CCN(CCCOc2ccc3c(C4CCN(C(=O)Nc5ccc(N6CCCC6)cc5)CC4)ncnc3c2)CC1 [Example 158, 4-{7-[3-(4-Methyl-piperazin-1-yl)-propoxy]-quinazolin-4-yl}-piperidine-1-carboxylic acid (4-pyrrolidin-1-yl-phenyl)-amide] | 8 nM | 11 nM
3 | O=C(Nc1ccc(N2CCOCC2)cc1)N1CCC(c2ncnc3cc(OCCCN4CCOCC4)ccc23)CC1 [Example 133, 4-[7-(3-Morpholin-4-yl-propoxy)-quinazolin-4-yl]-piperidine-1-carboxylic acid (4-morpholin-4-yl-phenyl)-amide] | 2 nM | 58 nM
4 | CS(=O)(=O)CCNc1ccc2c(C3CCN(C(=O)Nc4ccc(N5CCOCC5)cc4)CC3)ncnc2c1 [Example 146, 4-[7-(2-Methanesulfonyl-ethylamino)-quinazolin-4-yl]-piperidine-1-carboxylic acid (4-morpholin-4-yl-phenyl)-amide] | 274 nM | 322 nM
5 | O=C(Nc1ccc(N2CCCC2)cc1)N1CCC(c2ncnc3cc(N4CCN(c5ccccn5)CC4)ccc23)CC1 [Compound 192, 4-[7-(4-Pyridin-2-yl-piperazin-1-yl)-quinazolin-4-yl]-piperidine-1-carboxylic acid (4-pyrrolidin-1-yl-phenyl)-amide] | 2 nM | 13 nM
6 | O=C(CO)N1CCN(c2ccc3c(C4CCN(C(=O)Nc5ccc(N6CCCC6)cc5)CC4)ncnc3c2)CC1 [Compound 201, 4-{7-[4-(2-Hydroxy-acetyl)-piperazin-1-yl]-quinazolin-7-yl}-piperidine-1-carboxylic acid (4-pyrrolidin-1-yl-phenyl)-amide] | 17 nM | 16 nM
7 | O=C(Nc1ccc(N2CCOCC2)cc1)N1CCC(c2ncnc3cc(OCCN4CCOC4=O)ccc23)CC1 [Example 148, 4-{7-[2-(2-Oxo-oxazolidin-3-yl)-ethoxy]-quinazolin-4-yl}-piperidine-1-carboxylic acid (4-morpholin-4-yl-phenyl)-amide] | 30 nM | 66 nM
8 | CN(C)C(=O)N1CCN(CCCOc2ccc3c(C4CCN(C(=O)Nc5ccc(N6CCCC6)cc5)CC4)ncnc3c2)CC1 [Example 165, 4-(3-{4-[1-(4-Pyrrolidin-1-yl-phenylcarbamoyl)-piperidin-4-yl]-quinazolin-7-yloxy}-propyl)-piperazine-1-carboxylic acid dimethylamide] | 15 nM | 18 nM
9 | CN1CCN(c2ccc3c(C4CCN(C(=O)Nc5ccc(N6CCCC6)nc5)CC4)ncnc3c2)CC1 [Example 160, 4-[7-(4-Methyl-piperazin-1-yl)-quinazolin-4-yl]-piperidine-1-carboxylic acid (6-pyrrolidin-1-yl-pyridin-3-yl)-amide] | 14 nM | 67 nM
10 | O=C(Nc1ccc(N2CCCC2)cc1)N1CCC(c2ncnc3cc(NCCO)ccc23)CC1 [Example 175, 4-[7-(2-Hydroxy-ethylamino)-quinazolin-4-yl]-piperidine-1-carboxylic acid (4-pyrrolidin-1-yl-phenyl)-amide] | 1 nM | 18 nM
11 | CN(C)[C@@H]1CCN(c2ccc3c(C4CCN(C(=O)Nc5ccc(N6CCCC6)cc5)CC4)ncnc3c2)C1 [Example 149, (R)-4-[7-(3-Dimethylamino-pyrrolidin-1-yl)-quinazolin-4-yl]-piperidine-1-carboxylic acid (4-pyrrolidin-1-yl-phenyl)-amide] | 46 nM | 46 nM
12 | COc1cc2ncnc(C3CCN(C(=O)Nc4ccc(OC5CCC5)nc4)CC3)c2cc1OC [Example 17, 4-(6,7-Dimethoxy-quinazolin-4-yl)-piperidine-1-carboxylic acid (6-cyclobutoxy-pyridin-3-yl)-amide] | 16 nM | 31 nM
13 | COc1cc2ncnc(C3CCN(C(=O)Nc4ccc(N5CCOCC5)cc4)CC3)c2cc1OC [Example 18, 4-(6,7-Dimethoxy-quinazolin-4-yl)-piperidine-1-carboxylic acid (4-morpholin-4-yl-phenyl)-amide] | 62 nM | 137 nM
14 | COc1cc2ncnc(C3CCN(C(=O)Nc4ccc5ncsc5c4)CC3)c2cc1OC [Example 24, 4-(6,7-Dimethoxy-quinazolin-4-yl)-piperidine-1-carboxylic acid benzothiazol-6-ylamide] | 5500 nM | 3700 nM
15 | CC(=O)N1CCC(COc2ccc3c(C4CCN(C(=O)Nc5ccc(N6CCCC6)cc5)CC4)ncnc3c2)CC1 [Example 163, 4-[7-(1-Acetyl-piperidin-4-ylmethoxy)-quinazolin-4-yl]-piperidine-1-carboxylic acid (4-pyrrolidin-1-yl-phenyl)-amide] | 11 nM | 20 nM
16 | COc1cc2ncnc(C3CCN(C(=O)Nc4ccc5[nH]ccc5c4)CC3)c2cc1OC [Example 23, 4-(6,7-Dimethoxy-quinazolin-4-yl)-piperidine-1-carboxylic acid (1H-indol-5-yl)-amide] | 390 nM | 2700 nM
17 | O=C(Nc1ccc(N2CCCC2)cc1)N1CCC(c2ncnc3cc(OCCN4CCC[C@H]4CO)ccc23)CC1 [Example 152, (S)-4-{7-[2-(2-Hydroxymethyl-pyrrolidin-1-yl)-ethoxy]-quinazolin-4-yl}-piperidine-1-carboxylic acid (4-pyrrolidin-1-yl-phenyl)-amide] | 18 nM | 21 nM

Continued, values first:

Row | IC50 [1] | IC50 (MV4-11 cells) | Compound
18 | 4 nM | 39 nM | CN(C)C(=O)N1CCN(c2ccc3c(C4CCN(C(=O)Nc5ccc(N6CCOCC6)cc5)CC4)ncnc3c2)CC1 [Example 143, 4-{4-[1-(4-Morpholin-4-yl-phenylcarbamoyl)-piperidin-4-yl]-quinazolin-7-yl}-piperazine-1-carboxylic acid dimethylamide]
19 | 1 nM | 16 nM | O=C(Nc1ccc(N2CCCC2)cc1)N1CCC(c2ncnc3cc(N4CCC4)ccc23)CC1 [Example 173, 4-(7-Azetidin-1-yl-quinazolin-4-yl)-piperidine-1-carboxylic acid (4-pyrrolidin-1-yl-phenyl)-amide]
20 | 66 nM | 79 nM | CC(=O)N1CCN(c2ccc3c(C4CCN(C(=O)Nc5ccc(N6CCOCC6)cc5)CC4)ncnc3c2)CC1 [Example 141, 4-[7-(4-Acetyl-piperazin-1-yl)-quinazolin-4-yl]-piperidine-1-carboxylic acid (4-morpholin-4-yl-phenyl)-amide]
21 | 55 nM | 6 nM | O=C(Nc1ccc(N2CCCC2)cc1)N1CCC(c2ncnc3cc(N4CCN(CCO)CC4)ccc23)CC1 [Compound 185, 4-{7-[4-(2-Hydroxy-ethyl)-piperazin-1-yl]-quinazolin-4-yl}-piperidine-1-carboxylic acid (4-pyrrolidin-1-yl-phenyl)-amide]
22 | 17 nM | 34 nM | O=C(Nc1ccc(N2CCCC2)cc1)N1CCC(c2ncnc3cc(N4CCCC4)ccc23)CC1 [Compound 179, 4-(7-Pyrrolidin-1-yl-quinazolin-4-yl)-piperidine-1-carboxylic acid (4-pyrrolidin-1-yl-phenyl)-amide]
23 | 67 nM | 33 nM | O=C(Nc1ccc(N2CCOCC2)cc1)N1CCC(c2ncnc3cc(N4CCC[C@@H]4CO)ccc23)CC1 [Example 132, (R)-4-[7-(2-Hydroxymethyl-pyrrolidin-1-yl)-quinazolin-4-yl]-piperidine-1-carboxylic acid (4-morpholin-4-yl-phenyl)-amide]
24 | 33 nM | 387 nM | O=C(Nc1ccc(N2CCOCC2)cc1)N1CCC(c2ncnc3cc(N4CCC[C@H]4CO)ccc23)CC1 [Example 139, (S)-4-[7-(2-Hydroxymethyl-pyrrolidin-1-yl)-quinazolin-4-yl]-piperidine-1-carboxylic acid (4-morpholin-4-yl-phenyl)-amide]
25 | 28 nM | 220 nM | CN1CCCN(c2ccc3c(C4CCN(C(=O)Nc5ccc(N6CCOCC6)cc5)CC4)ncnc3c2)CC1 [Example 138, 4-[7-(4-Methyl-[1,4]diazepan-1-yl)-quinazolin-4-yl]-piperidine-1-carboxylic acid (4-morpholin-4-yl-phenyl)-amide]
26 | 25 nM | 16 nM | O=C(Nc1ccc(N2CCOCC2)cc1)N1CCC(c2ncnc3cc(N4CC[C@H](O)C4)ccc23)CC1 [Example 128, 4-[7-(3-Hydroxy-pyrrolidin-1-yl)-quinazolin-4-yl]-piperidine-1-carboxylic acid (4-morpholin-4-yl-phenyl)-amide]
27 | 1040 nM | 143 nM | O=C(Nc1ccc(N2CCOCC2)cc1)N1CCC(c2ncnc3cc(N4CCNC4=O)ccc23)CC1 [Compound 197, 4-[7-(2-Oxo-imidazolidin-1-yl)-quinazolin-4-yl]-piperidine-1-carboxylic acid (4-morpholin-4-yl-phenyl)-amide]
28 | 10 nM | 9 nM | O=C(Nc1ccc(N2CCCC2)cc1)N1CCC(c2ncnc3cc(N4CCOCC4)ccc23)CC1 [Compound 181, 4-(7-Morpholin-4-yl-quinazolin-4-yl)-piperidine-1-carboxylic acid (4-pyrrolidin-1-yl-phenyl)-amide]
